Measurements from ChEMBL document CHEMBL1153273, “4-(Alkylthio)- and 4-(arylthio)-benzonitrile derivatives as androgen receptor antagonists for the topical suppression of sebum production” (Bioorg Med Chem Lett, 2009).

Assays:
Androgen receptor [1] = molecular target: T1, Androgen receptor (Homo sapiens, UniProt P10275)
T1 sequence (P10275 whole entry): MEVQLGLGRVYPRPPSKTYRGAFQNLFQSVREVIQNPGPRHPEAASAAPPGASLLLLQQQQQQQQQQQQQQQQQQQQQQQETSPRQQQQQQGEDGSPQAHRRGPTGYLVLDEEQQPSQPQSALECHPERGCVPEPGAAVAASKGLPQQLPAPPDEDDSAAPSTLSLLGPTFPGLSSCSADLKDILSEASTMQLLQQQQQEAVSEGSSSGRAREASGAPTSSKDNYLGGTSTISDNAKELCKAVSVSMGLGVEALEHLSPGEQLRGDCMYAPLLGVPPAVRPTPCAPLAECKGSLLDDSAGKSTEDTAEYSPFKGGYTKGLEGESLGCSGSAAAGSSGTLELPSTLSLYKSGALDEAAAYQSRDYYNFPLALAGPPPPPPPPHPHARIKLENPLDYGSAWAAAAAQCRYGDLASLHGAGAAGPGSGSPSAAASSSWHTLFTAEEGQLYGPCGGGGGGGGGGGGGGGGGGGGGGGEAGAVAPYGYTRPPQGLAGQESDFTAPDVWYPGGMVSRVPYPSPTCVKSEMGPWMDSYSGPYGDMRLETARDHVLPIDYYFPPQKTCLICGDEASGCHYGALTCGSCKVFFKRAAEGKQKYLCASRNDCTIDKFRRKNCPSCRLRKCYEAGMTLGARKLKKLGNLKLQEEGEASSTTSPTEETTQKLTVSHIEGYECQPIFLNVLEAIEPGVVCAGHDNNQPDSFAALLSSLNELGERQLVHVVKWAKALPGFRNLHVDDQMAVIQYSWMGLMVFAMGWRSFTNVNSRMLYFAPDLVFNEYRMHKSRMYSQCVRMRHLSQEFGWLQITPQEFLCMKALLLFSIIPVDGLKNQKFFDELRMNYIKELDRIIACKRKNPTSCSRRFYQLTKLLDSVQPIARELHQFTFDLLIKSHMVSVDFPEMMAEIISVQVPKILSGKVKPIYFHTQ
Description: Antagonist activity at human androgen receptor expressed in human MDA-MB453 cells by luciferase reporter gene assay

Androgen receptor [2] = molecular target: T1, Androgen receptor; test: biochemical
Description: Displacement of [3H]DHT from human cloned androgen receptor expressed in Sf9 cells

Syrian golden hamster [3] = test: Reduction of wax ester production in Syrian hamster ear topically dosed at 1% twice daily for 5 days per week for two weeks measured after 18 to 24 hrs of final dose by HPLC lipid analysis; format: functional, Mesocricetus auratus; parameters: scale not given: the % may be the effect or the level left
Syrian golden hamster [4] = test: Reduction of cholesterol ester production in Syrian hamster ear topically dosed at 1% twice daily for 5 days per week for two weeks measured after 18 to 24 hrs of final dose by HPLC lipid analysis; format: functional, Mesocricetus auratus; parameters: scale not given: the % may be the effect or the level left

IC50 (Androgen receptor [1]) | IC50 (Androgen receptor [2]) | SMILES | Activity (Syrian golden hamster [3]) | Activity (Syrian golden hamster [4])
– | > 10000 nM | Cc1ccccc1[S+]([O-])c1ccc(C#N)cc1Cl (configuration not stated) | – | –
209 nM | 200 nM | COc1cc(Oc2ccc(C)cc2)ccc1C#N | – | –
10 nM | 29 nM | COc1cc(SC(C)C)ccc1C#N | 59% | 46%
– | 441 nM | COc1cc(SCC2CCC2)ccc1C#N | – | –
– | 1730 nM | COc1cc(SCCC(C)C)ccc1C#N | – | –
– | – | CC1(C)C(=O)N(c2ccc(C#N)c(C(F)(F)F)c2)C(=O)N1CCCCO [RU-58841] | 95% | –
55 nM | 169 nM | COc1cc(SCC2CC2)ccc1C#N | – | –
48 nM | 115 nM | COc1cc(C#N)ccc1Oc1ccccc1C | – | –
81 nM | 24 nM | COc1cc(Oc2ccccc2C)ccc1C#N | – | –
– | 5210 nM | COc1cc(C#N)ccc1Oc1ccc(C)cc1 | – | –
30 nM | 43 nM | COc1cc(Sc2c(C)cccc2C)ccc1C#N | 66% | 45%
> 1000 nM | 40 nM | CCCSc1ccc(C#N)c(OC)c1 | – | –
– | 353 nM | COc1cc(C#N)ccc1Oc1cccc(C)c1 | – | –
78 nM | 43 nM | Cc1ccccc1Sc1ccc(C#N)cc1Cl | – | –
197 nM | 57 nM | COc1cc(Oc2cccc(C)c2)ccc1C#N | – | –
69 nM | 39 nM | COc1cc(Sc2c(C)cc(C)cc2C)ccc1C#N | – | –
66 nM | 84 nM | CCCCSc1ccc(C#N)c(OC)c1 | – | –

SMILES | IC50 (Androgen receptor [1]) | IC50 (Androgen receptor [2]) | Activity (Syrian golden hamster [3]) | Activity (Syrian golden hamster [4])
CCCCSc1ccc(C#N)c(C(F)(F)F)c1 | 838 nM | 49 nM | – | –
N#Cc1ccc(Sc2ccccc2F)cc1C(F)(F)F | 54 nM | 184 nM | 64% | 50%
N#Cc1ccc(SCC2CCC2)cc1C(F)(F)F | 702 nM | 63 nM | – | –
CCCSc1ccc(C#N)c(C(F)(F)F)c1 | 11 nM | 23 nM | – | –
N#Cc1ccc(SC2CCC2)cc1C(F)(F)F | 167 nM | 194 nM | – | –
Cc1cccc(C)c1Sc1ccc(C#N)c(C(F)(F)F)c1 | – | 411 nM | – | –
N#Cc1ccc(SCC2CC2)cc1C(F)(F)F | 133 nM | 35 nM | 43% | 35%
CC(C)Sc1ccc(C#N)c(C(F)(F)F)c1 | 89 nM | 20 nM | 46% | 40%
COc1cc(Sc2ccccc2OC)ccc1C#N | 35 nM | 20 nM | – | –
CC(C)CCSc1ccc(C#N)c(C(F)(F)F)c1 | – | 519 nM | – | –
COc1ccccc1Sc1ccc(C#N)c(C(F)(F)F)c1 | 37 nM | 56 nM | – | –
Cc1cc(C)c(Sc2ccc(C#N)c(C(F)(F)F)c2)c(C)c1 | – | 1340 nM | – | –
Cc1ccccc1Sc1ccc(C#N)c(C(F)(F)F)c1 | 123 nM | 225 nM | – | –
CC(C)(C)Sc1ccc(C#N)c(C(F)(F)F)c1 | – | 315 nM | – | –
